Assay results taken from patent US20230293512A1, “S100 PROTEINS AS NOVEL THERAPEUTIC TARGETS IN MYELOPROLIFERATIVE NEOPLASMS” (ERASMUS UNIVERSITY MEDICAL CENTER ROTTERDAM, priority 2020, published 2023).

Experiments:
[1] = test system: mice developing JAK2(V617F)-mediated myelofibrosis; experiment: Tasquinimod treatment of mice with JAK2(V617F)-induced myelofibrosis; type: in vivo; conditions: JAK2(V617F)-transplanted mice, 30 mg/kg/day in drinking water; for MPN-specific leukocytosis (white blood cell counts from peripheral blood) / splenomegaly (spleen weights normalized to mouse weight) / bone marrow fibrosis grade (reticulin grade): 30 mg/kg/day; for bone marrow fibrosis grade (reticulin grade): vehicle-treated mice developed grade 2-3 fibrosis and osteosclerosis
Method: Murine organs were fixed in 4% paraformaldehyde for 24 hours and transferred to 70% ethanol. Femurs were decalcified in 10% EDTA/Tris-HCl (pH 6.6) solution for 72 hours, dehydrated and paraffin embedded. H&E and reticulin staining were performed on 4 μm sections according to established routine protocols.
Blood was periodically collected from mice via submandibular bleeds into Microtainer tubes coated with K2EDTA (Becton Dickinson, NJ, USA) and complete blood counts were performed on a Horiba Scil Vet abc Plus hematology system.
For tasquinimod studies, WT recipient mice (n=7-10/group) were lethally irradiated (10.5 Gy) and received ckit^+ cells transduced with […] or JAK2^(WT) retroviral virus. Tasquinimod treatment (ABR-215050, Biorbyt) was administered via drinking water at 30 mg/kg/day dissolved in 3% sucrose in autoclaved water. Tasquinimod was first dissolved in DMSO and mixed with 3% sucrose, 2% PEG300 (Sigma) in water. Vehicle-treated groups received DMSO-, PEG300-treated water with 3% sucrose. Drinking bottles were renewed twice a week. Treatment was started at 5 weeks post-transplant until 10 post-transplant, and resumed at 13 weeks post-transplant until sacrifice at 20 weeks post-transplant. Mice were randomly assigned to transplant and treatment groups.
To further validate the role of S100A8/S100A9 in the fibrotic initiation and progression, the inventors sought to use a S100A9-inhibitor known as tasquinimod (ABR-215050) in mice developing JAK2(V617F)-mediated myelofibrosis. […] Tasquinimod treatment was administered via drinking water starting at 5 weeks post-transplant, until sacrifice at 20 weeks post-transplant with a treatment break at 10 weeks post-transplant to minimize deleterious effects on normal granulocyte function (FIG. 4A).

S100A9 protein = target: T1, S100A9 protein (Homo sapiens, UniProt P06702); conditions: cited from earlier work
T1 sequence (P06702 1-114): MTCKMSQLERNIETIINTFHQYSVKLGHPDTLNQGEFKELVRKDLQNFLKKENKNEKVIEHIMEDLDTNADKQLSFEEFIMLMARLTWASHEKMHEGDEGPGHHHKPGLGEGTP

S100A8 and S100A9 = conditions: Stewart et al, Bone Marrow Res. 2018; cited from earlier work
[2] = weeks 5-10 and 13-20 post-transplant, vs vehicle
[3] = weeks 5-10 and 13-20 post-transplant, vs vehicle, listed as Tasquinimod

Compound: COc1cccc2c1c(O)c(C(=O)N(C)c1ccc(C(F)(F)F)cc1)c(=O)n2C [tasquinimod, 4-hydroxy-5-methoxy-N,1-dimethyl-2-oxo-N-[4-(trifluoromethyl)phenyl]-1,2-dihydroquinoline-3-carboxamide]
- thrombocytosis (platelet counts in peripheral blood) [1, 2]: did not develop thrombocytosis
- MPN-specific leukocytosis (white blood cell counts from peripheral blood) [1, 2]: did not develop MPN-specific leukocytosis
- splenomegaly (spleen weights normalized to mouse weight) [1, 2]: completely normalized
- MPN-specific leukocytosis (white blood cell counts from peripheral blood) [1, 3]: normalizes splenomegaly and leukocytosis
- splenomegaly (spleen weights normalized to mouse weight) [1, 3]: normalizes splenomegaly
- bone marrow fibrosis grade (reticulin grade) [1]: reduced fibrosis grade
- bone marrow fibrosis grade (reticulin grade) ([1]; listed as Tasquinimod): reduces fibrosis in bone marrow
- binding to S100A9 protein and effect on its interaction with TLR4 and RAGE receptors (S100A9 protein): binds to S100A9 protein and impedes its interaction with TLR4 and RAGE receptors

Compound: Cc1sc2c(c1C)C(c1ccc(Cl)cc1)=N[C@@H](CC(=O)OC(C)(C)C)c1nnc(C)n1-2 [JQ1]
- S100A8 and S100A9 mRNA and protein levels (S100A8 and S100A9): suppress S100A8 and S100A9 mRNA and protein levels
